Results on 3 molecules are retold here after US5773464A, “C-10 epoxy taxanes” (Bristol-Myers Squibb Company, priority 1997, dated 1998).

The structures appear in SMILES notation. Read-outs that look alike come from different tables or passages of the source.

The assay relates to HCT-116 human colon carcinoma cells. Nature of the assay: Cytotoxicity assay (MTS), 72 hour exposure. The assay is classed as cell-based. To be noted: HCT-116, 72 h, read-out: Cytotoxicity Assay IC50 (nM) against HCT 116 Human colon tumor cell line. Here is the method: Cytoxicity was assessed in HCT-116 human colon carcinoma cells by MTS (3-(4,5-dimethylthiazol-2-yl)-5-(3-carboxymethoxyphenyl)-2-(4-sulphenyl)-2H-tetrazolium, inner salt) assay as reported in T. L. Riss, et. al., "Comparison of MTT, XTT, and a novel tetrazolium compound MTS for in vitro proliferation and chemosensitivity assays.," Mol. Biol. Cell 3 (Suppl.):184a, 1992. Cells were plated at 4,000 cell/well in 96 well microtiter plates and 24 hours later drugs were added and serial diluted. The cells were incubated at 37° form 72 hours at which time the tetrazolium dye, MTS at 333 μg/ml (final concentration), in combination with the electron coupling agent phenazine methosulfate at 25 μM (final concentration) was added. A dehydrogenase enzyme in live cells reduces the MTS to a form that absorbs light at […] which can be quantitated spectrophotometrically. The greater the absorbance the greater the number of live cells. The results are expressed as an IC50, which is the drug concentration required to inhibit cell proliferation (i.e. absorbance at 450 nm) to 50% of that of untreated control cells. The IC50 values for compounds evaluated in this assay are evaluated in Table I.
^1 Cytoxicity was determined after a 72 hour exposure by MTS assay.

[1] abbreviates: 72 hour exposure, MTS assay, test comparing Ie with paclitaxel, run on a different day.

For orientation: IC50 means the concentration at which inhibition is half-maximal. Take `CC(=O)O[C@@]12CO[C@@H]1C[C@H](O)[C@@]1(C)C(=O)C3(CO3)C3=C(C)[C@@H](OC(=O)[C@H](O)[C@@H](NC(=O)c4ccccc4)c4ccccc4)C[C@@](O)([C@@H](OC(=O)c4ccccc4)[C@H]21)C3(C)C` (stereo partly shown) [Compound Ia]: the IC50 is 2 nM.

Regarding `COCO[C@H]1C[C@H]2OC[C@@]2(OC(C)=O)[C@H]2[C@H](OC(=O)c3ccccc3)[C@]3(O)C[C@H](OC(=O)[C@H](O)[C@@H](NC(=O)c4ccccc4)c4ccccc4)C(C)=C(C4(CO4)C(=O)[C@]12C)C3(C)C` (stereo partly shown) [Compound Ie], the IC50 under setting [1] worked out at 1.5 nM.

As for `CC(=O)O[C@H]1C(=O)[C@@]2(C)[C@H]([C@H](OC(=O)c3ccccc3)[C@]3(O)C[C@H](OC(=O)[C@H](O)[C@@H](NC(=O)c4ccccc4)c4ccccc4)C(C)=C1C3(C)C)[C@]1(OC(C)=O)CO[C@@H]1C[C@@H]2O` [paclitaxel], the IC50 was found to be 2.9 nM (72 hour exposure, MTS assay, test comparing Ia with paclitaxel) and 1 nM under setting [1].
